What was measured:
[1] = test system: viable cells (HeLA, A549, HEK293, MRC-5); test: Tracking of quadruplex nucleic acid formation in viable cells stained by compound 10 (response to PDS); assay type: cell-based; details: PDS 20 μM added to viable cells stained by compound 10 (1 μM)
Description: In the seventh experiment, pyridostatin (PDS: 20 μM) was added to viable cells stained by the same method as that in the sixth experiment and temporal change of a fluorescence image thereafter was observed. Pyridostatin (PDS) is a reagent for stabilizing quadruplex nucleic acids. FIG. 24 and FIG. 25 show the result of the seventh experiment.
In FIG. 25 as well, a case where PDS was added to the viable cells stained by the compound 10 was indicated with PDS (+), and a case where PDS was not added was indicated with PDS (−). In FIG. 25, the vertical axis represents intensity ratio between 600 nm fluorescence and 700 nm fluorescence, and the horizontal axis represents time after addition of PDS.

ds(AAATTT) being a dsDNA = details: conventional fluorescent ds probe, comparison value, read-out: dissociation constant; cited from earlier work
fixed HeLa cells = test: Competition experiment with Hoechist 33258 using fixed HeLa cells; assay type: cell-based; details: Hoechist 33258 0-6.0 μM with compound 10 (6 μM) in PBS
Description: In a ninth experiment, a competition experiment with Hoechist 33258 was performed using fixed HeLa cells. As the staining liquid, one obtained by causing Hoechist 33258 at an arbitrary concentration (0 μM, 1.5 μM, 3.0 μM, 6.0 μM) to coexist in a PBS solution of the compound 10 (6 μM) was used, and the experiment was performed according to an operation similar to that in the fourth experiment. […] In FIG. 27, “Ph” is a phase contrast observation image of cells at each concentration of Hoechist 33258. “Hoe” is a 460 nm fluorescence image at each concentration of Hoechist 33258. The fluorescence wavelength of Hoechist 33258 is 460 nm. “600 nm” is a 600 nm fluorescence image. “700 nm” is a 700 nm fluorescence image. “600 nm/700 nm” is a synthesized image of “600 nm” and “700 nm”. “Magnified 600 nm/700 nm” is a magnified image of “600 nm/700 nm”.

living HeLa cells = test: Competition experiment with Hoechist 33258 using living HeLa cells; assay type: cell-based; details: Hoechist 33258 0-20 μM with compound 10 (1 μM) in 5% glucose
Description: In a tenth experiment, a competition experiment with Hoechist 33258 was performed using living HeLa cells. As the staining liquid, one obtained by causing Hoechist 33258 at an arbitrary concentration (0 μM, 5.0 μM, 10 μM, 20 μM) to coexist in a 5% glucose solution of the compound 10 (1 μM) was used, and the experiment was performed according to an operation similar to that in the sixth experiment. […] In FIG. 28, “600 nm” is a 600 nm fluorescence image. “700 nm” is a 700 nm fluorescence image. “Hoe” is a 460 nm fluorescence image at each concentration of Hoechist 33258. “Merged” is a synthesized image of “600 nm”, “700 nm”, and “Hoe”.

SMILES: NCCOc1cc(C(=O)Nc2cc(OCCN)c3ccccc3n2)nc(C(=O)Nc2cc(OCCN)c3ccccc3n2)c1 [PDS, Pyridostatin]
- intensity ratio of 700 nm fluorescence to 600 nm fluorescence [1]: increased

SMILES: C[n+]1c(/C=C/c2ccc(O)c(/C=C/c3sc4ccccc4[n+]3C)c2)sc2ccccc21 [QCy-DT, quinone cyanine-dithiazole]
- Kd (ds(AAATTT) being a dsDNA): ~670 nM

SMILES: CN1CCN(c2ccc3[nH]c(-c4ccc5[nH]c(-c6ccc(O)cc6)nc5c4)nc3c2)CC1 [Hoechist 33258]
- 600 nm fluorescence intensity of compound 10 with increasing Hoechist 33258 concentration (fixed HeLa cells): significantly decreased
- 600 nm fluorescence intensity of compound 10 with increasing Hoechist 33258 concentration (living HeLa cells): significantly decreased
